From patent US12492188B2, “1H-benzo[D]imidazole derivatives as TLR9 inhibitors for the treatment of fibrosis” (BRISTOL-MYERS SQUIBB COMPANY, priority 2020, dated 2025)
pIC50: −log10 of the molar value. Where two headings read alike, the source gives them in different places.

Columns and labels:
Type in all cases: cell-based
human TLR9 = biological target: T1, human TLR9 (Homo sapiens, UniProt Q9NR96); assay: TLR9 inhibition reporter assay (HEK-Blue cells, secreted embryonic alkaline phosphatase reporter)
T1 construct: host or cells: HEK-Blue cells (HEK293-derived reporter line)
T1 sequence (Q9NR96 26-1032): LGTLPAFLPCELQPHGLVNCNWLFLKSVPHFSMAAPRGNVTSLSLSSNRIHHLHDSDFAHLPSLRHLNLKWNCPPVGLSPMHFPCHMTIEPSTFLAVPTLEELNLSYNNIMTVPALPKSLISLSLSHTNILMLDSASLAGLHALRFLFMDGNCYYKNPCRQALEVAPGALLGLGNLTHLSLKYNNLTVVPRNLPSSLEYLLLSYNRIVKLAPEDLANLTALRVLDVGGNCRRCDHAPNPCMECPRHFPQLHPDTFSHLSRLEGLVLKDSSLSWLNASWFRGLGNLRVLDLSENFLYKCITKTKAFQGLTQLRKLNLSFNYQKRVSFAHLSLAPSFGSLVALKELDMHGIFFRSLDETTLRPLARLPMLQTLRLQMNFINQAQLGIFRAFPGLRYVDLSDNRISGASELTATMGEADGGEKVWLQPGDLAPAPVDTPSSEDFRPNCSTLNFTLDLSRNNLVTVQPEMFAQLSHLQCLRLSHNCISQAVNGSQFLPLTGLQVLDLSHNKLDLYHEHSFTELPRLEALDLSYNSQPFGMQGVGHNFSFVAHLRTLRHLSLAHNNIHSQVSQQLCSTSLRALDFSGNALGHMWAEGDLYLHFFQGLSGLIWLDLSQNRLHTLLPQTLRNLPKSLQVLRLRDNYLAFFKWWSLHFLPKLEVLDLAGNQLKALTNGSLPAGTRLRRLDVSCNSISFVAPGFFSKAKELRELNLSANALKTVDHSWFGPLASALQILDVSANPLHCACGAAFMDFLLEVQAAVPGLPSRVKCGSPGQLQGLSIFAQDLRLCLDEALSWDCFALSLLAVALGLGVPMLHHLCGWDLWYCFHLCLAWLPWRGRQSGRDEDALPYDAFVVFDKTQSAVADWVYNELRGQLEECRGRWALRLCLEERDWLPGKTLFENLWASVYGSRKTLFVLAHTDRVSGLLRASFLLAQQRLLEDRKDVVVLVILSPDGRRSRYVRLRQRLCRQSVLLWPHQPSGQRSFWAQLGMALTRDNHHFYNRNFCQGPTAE
Outline: (§1)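 Steps: seed receptor-specific HEK-Blue cells; add compound, 0.05 nM–50 μM; wait 30 min at room temperature; add final gardiquimod 7.5 μM, R848 15.9 μM or ODN2006 5 nM for TLR7, TLR8 or TLR9; incubate 22 h at 37 °C; detect NF-κB/AP-1-driven SEAP.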

human TLR7 = biological target: T2, human TLR7 (Homo sapiens, UniProt Q9NYK1); assay: TLR7 inhibition reporter assay (HEK-Blue cells, secreted embryonic alkaline phosphatase reporter); details: HEK-Blue cells overexpressing human TLR7, stimulated with gardiquimod 7.5 μM; read-out: TLR 7 IC50
T2 construct: host or cells: HEK-Blue cells (HEK293-derived reporter line)
T2 sequence (Q9NYK1 27-1049): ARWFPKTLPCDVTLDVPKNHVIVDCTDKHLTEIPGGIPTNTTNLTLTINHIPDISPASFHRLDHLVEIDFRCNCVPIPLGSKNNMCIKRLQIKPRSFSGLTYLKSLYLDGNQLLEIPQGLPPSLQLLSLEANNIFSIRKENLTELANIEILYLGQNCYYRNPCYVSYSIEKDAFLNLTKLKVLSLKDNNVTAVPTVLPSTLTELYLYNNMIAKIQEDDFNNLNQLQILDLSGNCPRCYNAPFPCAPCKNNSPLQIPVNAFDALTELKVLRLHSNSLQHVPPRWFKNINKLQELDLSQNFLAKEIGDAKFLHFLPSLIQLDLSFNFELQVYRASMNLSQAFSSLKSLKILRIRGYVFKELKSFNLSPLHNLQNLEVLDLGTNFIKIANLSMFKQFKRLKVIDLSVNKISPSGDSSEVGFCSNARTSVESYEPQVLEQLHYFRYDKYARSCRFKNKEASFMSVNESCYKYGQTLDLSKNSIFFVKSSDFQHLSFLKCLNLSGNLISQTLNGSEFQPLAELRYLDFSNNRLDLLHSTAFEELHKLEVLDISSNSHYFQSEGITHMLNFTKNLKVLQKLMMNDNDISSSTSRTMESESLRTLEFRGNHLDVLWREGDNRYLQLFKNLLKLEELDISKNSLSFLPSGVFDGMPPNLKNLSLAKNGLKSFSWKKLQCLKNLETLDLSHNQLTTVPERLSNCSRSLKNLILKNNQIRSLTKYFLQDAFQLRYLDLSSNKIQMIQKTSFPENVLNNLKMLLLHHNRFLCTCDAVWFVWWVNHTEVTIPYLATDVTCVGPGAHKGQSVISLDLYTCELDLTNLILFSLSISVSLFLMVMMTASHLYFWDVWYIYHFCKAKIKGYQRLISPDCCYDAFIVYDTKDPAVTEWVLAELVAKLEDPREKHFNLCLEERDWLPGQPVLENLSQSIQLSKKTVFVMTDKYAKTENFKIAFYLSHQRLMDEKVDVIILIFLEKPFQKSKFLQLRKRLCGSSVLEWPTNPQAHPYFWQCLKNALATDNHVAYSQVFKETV
Outline: as §1

human TLR8 = biological target: T3, human TLR8 (Homo sapiens, UniProt Q9NR97); assay: TLR8 inhibition reporter assay (HEK-Blue cells, secreted embryonic alkaline phosphatase reporter); details: HEK-Blue cells overexpressing human TLR8, stimulated with R848 15.9 μM; read-out: TLR 8 IC50
T3 construct: host or cells: HEK-Blue cells (HEK293-derived reporter line)
T3 sequence (Q9NR97 27-1041): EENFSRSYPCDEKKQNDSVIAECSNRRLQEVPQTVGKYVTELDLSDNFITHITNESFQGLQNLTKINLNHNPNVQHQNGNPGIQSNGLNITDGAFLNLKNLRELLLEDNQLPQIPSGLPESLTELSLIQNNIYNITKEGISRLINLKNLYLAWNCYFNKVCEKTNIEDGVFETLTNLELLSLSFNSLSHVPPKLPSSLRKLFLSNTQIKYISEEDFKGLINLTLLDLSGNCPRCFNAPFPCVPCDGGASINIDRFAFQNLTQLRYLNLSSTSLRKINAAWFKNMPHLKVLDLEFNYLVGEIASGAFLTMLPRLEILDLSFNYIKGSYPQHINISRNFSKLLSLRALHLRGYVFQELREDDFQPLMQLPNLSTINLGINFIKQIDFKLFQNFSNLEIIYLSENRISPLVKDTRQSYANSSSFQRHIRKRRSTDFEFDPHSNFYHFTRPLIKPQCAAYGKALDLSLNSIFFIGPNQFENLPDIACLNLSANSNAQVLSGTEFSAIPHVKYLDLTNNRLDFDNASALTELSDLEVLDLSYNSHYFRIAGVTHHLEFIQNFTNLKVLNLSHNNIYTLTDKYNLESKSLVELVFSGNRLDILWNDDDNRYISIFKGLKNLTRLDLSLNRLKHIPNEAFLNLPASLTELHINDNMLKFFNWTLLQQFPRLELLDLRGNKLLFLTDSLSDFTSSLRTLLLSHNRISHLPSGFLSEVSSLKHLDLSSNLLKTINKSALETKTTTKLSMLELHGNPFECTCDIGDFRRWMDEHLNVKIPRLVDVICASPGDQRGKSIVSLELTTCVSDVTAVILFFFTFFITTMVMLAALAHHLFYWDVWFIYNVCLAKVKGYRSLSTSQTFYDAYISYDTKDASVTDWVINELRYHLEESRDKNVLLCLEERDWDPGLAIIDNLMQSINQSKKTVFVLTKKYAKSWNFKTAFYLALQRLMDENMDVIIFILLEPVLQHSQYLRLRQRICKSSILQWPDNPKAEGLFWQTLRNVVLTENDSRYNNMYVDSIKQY
Outline: as §1

[1] = HEK-Blue cells overexpressing human TLR9, stimulated with ODN2006 5 nM, 22 hour incubation, reporter readout
[2] = HEK-Blue cells overexpressing human TLR9, stimulated with ODN2006 5 nM, read-out: TLR 9 IC50

pIC50 (human TLR9; [1]) | pIC50 (human TLR9; [2]) | pIC50 (human TLR7) | pIC50 (human TLR8) | pIC50 (human TLR9; HEK-Blue human TLR9 reporter cells) | pIC50 (human TLR9) | SMILES
6.24 | 6.24 | 5.51 | < 4.30 |  |  | Cc1cc(C2CCN(C3CC4CCC(C3)N4C3CCC3)CC2)cc2c1nc(-c1ccc(S(C)(=O)=O)c(F)c1)n2C (single isomer, unassigned) [Example 124, 6-(1-(8-cyclobutyl-8-azabicyclo[3.2.1]octan-3-yl)piperidin-4-yl)-2-(3-fluoro-4-(methylsulfonyl)phenyl)-1,4-dimethyl-1H-benzo[d]imidazole]
6.59 | 7.59 | 4.62 | < 4.30 |  |  | Cn1c(-c2ccc(S(C)(=O)=O)cc2)nc2c(F)cc(C3CCN(C4CCCN(C5COC5)CC4)CC3)cc21 (single isomer, unassigned) [Example 108, 4-fluoro-1-methyl-2-(4-(methylsulfonyl)phenyl)-6-(1-(1-(oxetan-3-yl)azepan-4-yl)piperidin-4-yl)-1H-benzo[d]imidazole]
 | 7.85 | 5.38 | < 4.30 | 7.85 |  | COCCN1CCCC(N2CCC(c3cc(F)c4nc(-c5ccc(S(C)(=O)=O)cc5)n(C)c4c3)CC2)CC1 (single isomer, unassigned) [Example 303, 4-fluoro-6-(1-(1-(2-methoxyethyl)azepan-4-yl)piperidin-4-yl)-1-methyl-2-(4-(methylsulfonyl)phenyl)-1H-benzo[d]imidazole]
6.96 | 6.97 | 5.62 | < 4.30 |  |  | COc1ccc(-c2nc3ccc(C4CCN(C5CCN(C6CC6)CC5)CC4)cc3n2C)cc1OC [Example 27, 6-(1′-cyclopropyl-[1,4′-bipiperidin]-4-yl)-2-(3,4-dimethoxyphenyl)-1-methyl-1H-benzo[d]imidazole]
6.92 | 6.94 | 4.72 | < 4.60 |  |  | Cc1cc(C2CCN(C3CC4CCC(C3)N4CC(C)C)CC2)cc2c1nc(-c1ccc(S(C)(=O)=O)cc1)n2C (centres unmarked) [Example 118, 6-(1-(8-isobutyl-8-azabicyclo[3.2.1]octan-3-yl)piperidin-4-yl)-1,4-dimethyl-2-(4-(methylsulfonyl)phenyl)-1H-benzo[d]imidazole]
7.00 | 7.98 | 5.00 | < 4.30 |  |  | COc1ccc(-c2nc3c(C)cc(C4CCN(C5CC6(C5)CN(C(C)C)C6)CC4)cc3n2C)cc1OC [Example 16, 2-(3,4-dimethoxyphenyl)-6-(1-(2-isopropyl-2-azaspiro[3.3]heptan-6-yl)piperidin-4-yl)-1,4-dimethyl-1H-benzo[d]imidazole tris(2,2,2-trifluoroacetate)]
 | 7.91 | 4.84 | < 4.60 |  | 6.92 | Cc1cc(C2CCN(C3CC4CCC(C3)N4C3CCC3)CC2)cc2c1nc(-c1ccc(S(C)(=O)=O)cc1)n2C (single isomer, unassigned) [Example 153, 6-(1-(8-cyclobutyl-8-azabicyclo[3.2.1]octan-3-yl)piperidin-4-yl)-1,4-dimethyl-2-(4-(methylsulfonyl)phenyl)-1H-benzo[d]imidazole]
6.40 | 6.39 | 5.43 | 5.80 |  |  | CCn1c(-c2ccc(OC)c(OC)c2)nc2cc(C3CCN(C4CCN(CC(C)C)CC4)CC3)ccc21 [Example 41, 2-(3,4-dimethoxyphenyl)-1-ethyl-5-(1′-isobutyl-[1,4′-bipiperidin]-4-yl)-1H-benzo[d]imidazole]
6.44 | 6.45 | 4.42 | < 4.30 |  |  | CC(C)N1CCC(N2CCC(c3cc4nc(-c5ccc(S(C)(=O)=O)cc5)n(C)c4cc3F)CC2)CC1 [Example 99, 6-fluoro-5-(1′-isopropyl-[1,4′-bipiperidin]-4-yl)-1-methyl-2-(4-(methylsulfonyl)phenyl)-1H-benzo[d]imidazole]
6.59 | 6.59 | 4.49 | < 4.30 |  |  | COc1ccc(-c2nc3cc(C4CCN(C5CCN(CC(C)C)CC5)CC4)c(C(F)(F)F)cc3[nH]2)cc1OC [Example 42, 2-(3,4-dimethoxyphenyl)-5-(1′-isobutyl-[1,4′-bipiperidin]-4-yl)-6-(trifluoromethyl)-1H-benzo[d]imidazole]
 | 7.11 | < 4.30 | < 4.30 |  | 7.11 | CC(C)CN1C2CCC1CC(N1CCC(c3cc4nc(-c5ccc(S(C)(=O)=O)cc5)n(C)c4cc3F)CC1)C2 (centres unmarked) [Example 248, 6-fluoro-5-(1-(8-isobutyl-8-azabicyclo[3.2.1]octan-3-yl)piperidin-4-yl)-1-methyl-2-(4-(methylsulfonyl)phenyl)-1H-benzo[d]imidazole]
